Measurements: PMC5359181 (Protein & Cell, 2016)
Like-named read-outs stand apart in the source and are kept apart here.

How the values were obtained:
[1] = molecular target: T1, human equilibrative nucleoside transporter 1 (hENT1) (Homo sapiens, UniProt Q99808, N48Q); test: proteoliposome competition assay with 3H-adenosine, […] reduction at […]; format: biochemical; conditions: read-out: % reduction at 500 μmol/L
T1 construct: gene SLC29A1; full-length, residues 1-456
T1 sequence (Q99808 1-456 N48Q): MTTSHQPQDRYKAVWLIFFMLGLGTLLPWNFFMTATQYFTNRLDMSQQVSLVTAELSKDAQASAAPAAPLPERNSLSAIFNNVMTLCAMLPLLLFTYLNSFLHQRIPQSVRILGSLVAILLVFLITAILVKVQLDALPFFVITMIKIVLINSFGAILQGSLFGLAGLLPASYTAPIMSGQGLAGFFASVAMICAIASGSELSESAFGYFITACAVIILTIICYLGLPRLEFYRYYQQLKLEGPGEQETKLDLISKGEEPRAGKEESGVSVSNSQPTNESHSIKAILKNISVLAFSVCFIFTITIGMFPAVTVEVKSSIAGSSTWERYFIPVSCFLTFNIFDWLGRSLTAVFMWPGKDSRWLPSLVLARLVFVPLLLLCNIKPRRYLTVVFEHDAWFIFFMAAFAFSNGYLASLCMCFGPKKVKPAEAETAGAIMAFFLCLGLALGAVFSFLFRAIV

[2] = molecular target: T1, human equilibrative nucleoside transporter 1 (hENT1); test: ITC; format: binding

Row | SMILES | inhibition at 500 µM [1] [%] | other results
1 | O=c1ccn([C@H]2C[C@H](O)[C@@H](CO)O2)c(=O)[nH]1 [deoxyuridine] | > 90 | 
2 | Nc1ncnc2c1ncn2[C@H]1C[C@H](O)[C@@H](CO)O1 [deoxyadenosine] |  | Kd ([2]; read-out: Kd): 190 ± 40 µM
3 | Nc1ncnc2nc[nH]c12 [adenine] |  | Kd [2]: 5000 ± 500 µM
4 | Nc1nc2c(ncn2[C@H]2C[C@H](O)[C@@H](CO)O2)c(=O)[nH]1 [deoxyguanosine] | > 90 | 
5 | O=c1ccn([C@@H]2O[C@H](CO)[C@@H](O)[C@H]2O)c(=O)[nH]1 [uridine] | > 90 | 
6 | Cc1cn([C@H]2C[C@H](O)[C@@H](CO)O2)c(=O)[nH]c1=O [thymidine] | > 90 | 
7 | Cc1cn([C@@H]2O[C@H](CO)[C@@H](O)[C@H]2O)c(=O)[nH]c1=O [5-methyluridine] | > 90 | 
